{"source": "patent US9815831B2", "about": "“3,5-disubstituted-3H-imidazo[4,5-B]pyridine and 3,5-disubstituted-3H-[1,2,3]triazolo[4,5-B] pyridine compounds as modulators of c-Met protein kinases” (Rhizen Pharmaceuticals SA, priority 2012, dated 2017)", "key": {"[1]": {"target": "T1, human recombinant Met kinase (Homo sapiens, UniProt P08581)", "T1 construct": "purchased Cell Signalling Technology, Beverly, Mass", "T1 sequence (P08581 25-1390)": "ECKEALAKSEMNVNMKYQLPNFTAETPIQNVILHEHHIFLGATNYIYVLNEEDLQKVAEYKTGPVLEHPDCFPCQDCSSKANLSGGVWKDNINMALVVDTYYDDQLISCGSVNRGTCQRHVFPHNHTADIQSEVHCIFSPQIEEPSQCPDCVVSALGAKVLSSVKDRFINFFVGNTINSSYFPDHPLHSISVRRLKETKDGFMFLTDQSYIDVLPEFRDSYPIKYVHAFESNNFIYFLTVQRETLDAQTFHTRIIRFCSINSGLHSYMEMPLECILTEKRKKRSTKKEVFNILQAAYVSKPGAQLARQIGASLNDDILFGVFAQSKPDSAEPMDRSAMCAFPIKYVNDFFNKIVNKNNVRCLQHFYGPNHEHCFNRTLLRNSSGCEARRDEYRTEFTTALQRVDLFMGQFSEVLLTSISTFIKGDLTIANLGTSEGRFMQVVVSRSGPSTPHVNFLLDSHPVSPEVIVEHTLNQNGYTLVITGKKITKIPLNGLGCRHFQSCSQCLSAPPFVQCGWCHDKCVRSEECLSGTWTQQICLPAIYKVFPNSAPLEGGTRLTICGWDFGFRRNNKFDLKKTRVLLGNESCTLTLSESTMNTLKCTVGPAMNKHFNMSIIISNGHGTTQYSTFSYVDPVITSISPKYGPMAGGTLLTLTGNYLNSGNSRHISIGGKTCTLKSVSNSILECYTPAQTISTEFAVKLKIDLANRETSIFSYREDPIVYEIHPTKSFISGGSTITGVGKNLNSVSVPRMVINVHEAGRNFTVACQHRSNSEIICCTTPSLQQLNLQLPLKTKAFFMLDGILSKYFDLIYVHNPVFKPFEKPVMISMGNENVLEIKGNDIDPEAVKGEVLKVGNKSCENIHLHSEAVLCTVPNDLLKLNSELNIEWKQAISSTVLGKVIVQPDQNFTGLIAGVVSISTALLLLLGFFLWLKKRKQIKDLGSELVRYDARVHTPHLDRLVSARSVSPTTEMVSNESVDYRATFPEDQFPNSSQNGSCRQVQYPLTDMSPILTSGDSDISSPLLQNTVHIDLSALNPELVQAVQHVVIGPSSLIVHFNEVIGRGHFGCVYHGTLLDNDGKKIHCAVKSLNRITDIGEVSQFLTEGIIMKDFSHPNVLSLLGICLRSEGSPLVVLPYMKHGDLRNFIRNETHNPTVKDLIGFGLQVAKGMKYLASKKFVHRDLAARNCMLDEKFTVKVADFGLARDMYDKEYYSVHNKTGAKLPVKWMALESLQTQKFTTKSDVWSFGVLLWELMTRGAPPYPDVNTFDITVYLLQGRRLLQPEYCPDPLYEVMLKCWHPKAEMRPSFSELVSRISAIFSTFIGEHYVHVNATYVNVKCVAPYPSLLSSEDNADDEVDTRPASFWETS", "experiment": "Colorimetric determination of c-Met kinase activity (HTScan Met Kinase Assay Kit)", "type": "biochemical", "conditions": "for inhibition at 0.1 µM: 100 nM (cells without *), read-out: c-Met Enzyme % inhibition @ 100 nM; for inhibition: cells marked *: tested @ 300 nM, read-out: c-Met Enzyme % inhibition", "excerpt": "1. MET Kinase Assay Protocol:\nColorimetric Determination of c-Met Kinase Activity\nThe receptor tyrosine kinase c-Met is a heterodimeric transmembrane glycoprotein involved in several cellular processes that aid in tumor progression. Phosphorylation of the tyrosine residues in the c-Met kinase domain is critical for its activity and the resulting down-stream effects. The colorimetric assay allows detection of the phosphorylated form of a biotinylated peptide upon activation of human recombinant Met kinase.\nMET Kinase Assay Protocol:\nc-Met Kinase activity shall be determined using an HTScan® Met Kinase Assay Kit (Cell Signalling Technology, Beverly, Mass.) with modifications. All incubations are carried out at room temperature. Briefly, 12.5 μl of a 4× reaction cocktail (DTT/Kinase buffer containing appropriate quantity of human Met kinase) is added to each well of a 96-well plate containing 12.5 μl pre-diluted compound of interest and incubated for 5 minutes. After the initial incubation, 25 μl/well of 2×ATP/biotinylated peptide is added and incubated for an additional 30 minutes. The reaction is terminated by the addition of 50 μl/well stop buffer (50 mM EDTA, pH 8.0). The reaction mixture (25 μl/well) is then transferred to a streptavidin coated plate (Perkin Elmer, Cat#4009-0010) containing 75 μl dH2O and incubated for 60 minutes. The plate is washed with 200 μl/well wash buffer (1×PBS, 0.05% Tween-20). After washing, 100 μl/well phospho-tyrosine mAb (1:1000 in wash buffer containing 1% BSA) is added and incubated for 60 minutes. After another round of washes, 100 μl/well europium labelled anti-mouse IgG (1:500 in wash buffer containing 1% BSA) is added and incubated for an additional 30 minutes. Following additional washes, 100 μl/well Delfia^(R) enhancement solution (Perkin Elmer, Cat#1244-105) is added and incubated for 45 minutes. Florescence is measured on a microplate reader (BMG Labtech., Germany) at 340 nm (excitation) and 615 nm (emission) for calculating % inhibition. Data generated can be analyzed further using Graphpad Prism (Graphpad software, San Diego Calif.) for determination of IC50.\nResults: The results are as given below in Table 4A, 4B and 4C as % Inhibition or IC50 of c-Met"}, "[2]": {"test_system": "MKN-45", "experiment": "Inhibition of MKN-45 proliferation (MTT)", "type": "cell-based, human", "conditions": "MKN-45 proliferation; for GI50: read-out: MKN45 GI50", "experimental": "3. Inhibition of MKN-45 Proliferation:\nCell proliferation assays were carried out using the high Met expressing human gastric adenocarcinoma cell line, MKN-45, according to the following schedule: • Day 1: Cells were plated in 96-well plates in complete growth medium. • Day 2: Compounds at desired concentrations were added. • Day 5: Cell viability was determined using the 3-[4,5-dimethylthiazol-2-yl]-2,5-diphenyltetrazolium bromide (MTT) dye reduction test. Results: The results are as given as % Inhibition of MKN-45 proliferation at 100 nM and GI50 values in Table 4A to 4C above. 4. Inhibition of c-Met Kinase Phosphorylation in MKN-45 Cells: […]"}}, "note": "Structures can show the parent of a compound that is named as a salt. Where two headings read alike, the source gives them in different places."}
{"compound": "Cc1cc(-c2ccc3nnn(Cc4ccc5ncccc5c4)c3n2)ccc1C(=O)NOC[C@H](C)O", "note": "[Example 36, (S)—N-(2-hydroxypropoxy)-2-methyl-4-(3-(quinolin-6-ylmethyl)-3H-[1,2,3]triazolo[4,5-b]pyridin-5-yl)benzamide]", "values": [{"measurement": "inhibition at 0.1 µM", "setting": "[1]; Table 4A", "value": "75 to 100", "unit": "%"}]}
{"compound": "CC(C)(O)CONC(=O)c1ccc(-c2ccc3ncn(Cc4ccc5ncccc5c4)c3n2)cc1Cl", "note": "[Example 114, 2-Chloro-N-(2-hydroxy-2-methyl-propoxy)-4-(3-quinolin-6-ylmethyl-3H-imidazo[4,5-b]pyridin-5-yl)-benzamide]", "values": [{"measurement": "inhibition at 0.1 µM", "setting": "[1]; Table 4B", "value": "75 to 100", "unit": "%"}]}
{"compound": "C/C(=N\\OCCNC(N)=O)c1ccc2nnn(Cc3ccc4ncccc4c3)c2n1", "note": "[Example 64, 1-(2-(1-(3-(quinolin-6-ylmethyl)-3H-[1,2,3]triazolo[4,5-b]pyridin-5-yl)ethylideneaminooxy)ethyl)urea]", "values": [{"measurement": "inhibition at 0.1 µM", "setting": "[1]; Table 4A", "value": "50 to 75", "unit": "%"}]}
{"compound": "NC(=O)N/N=C(\\N)c1ccc2nnn(Cc3ccc4ncccc4c3)c2n1", "note": "[Example 52, 2-(amino(3-(quinolin-6-ylmethyl)-3H-[1,2,3]triazolo[4,5-b]pyridin-5-yl)methylene)hydrazinecarboxamide]", "values": [{"measurement": "inhibition", "setting": "[1]; Table 4A", "value": "< 25", "unit": "%"}]}
{"compound": "O=C1NCc2cc(-c3ccc4nnn(Cc5ccc6ncccc6c5)c4n3)ccc21", "note": "[Example 1032, 5-(3-Quinolin-6-ylmethyl-3H-[1,2,3]triazolo[4,5-b]pyridin-5-yl)-2,3-dihydro-isoindol-1-one]", "values": [{"measurement": "inhibition at 0.1 µM", "setting": "[1]; Table 4C", "value": "75 to 100", "unit": "%"}]}
{"compound": "NC(=O)c1c(F)cc(-c2ccc3nnn(Cc4ccc5c(ccc[n+]5[O-])c4)c3n2)cc1F", "note": "[Example 1001, 6-((5-(4-carbamoyl-3,5-difluorophenyl)-3H-[1,2,3]triazolo[4,5-b]pyridin-3-yl)methyl)quinoline 1-oxide]", "values": [{"measurement": "inhibition at 0.1 µM", "setting": "[1]; Table 4C", "value": "< 25", "unit": "%"}]}
{"compound": "Cc1cc(-c2ccc3nnn(Cc4ccc5[nH]c(=O)ccc5c4)c3n2)ccc1C(=O)NOCCO", "note": "[Example 25d, N-(2-hydroxyethoxy)-2-methyl-4-(3-((2-oxo-1,2-dihydroquinolin-6-yl)methyl)-3H-[1,2,3]triazolo[4,5-b]pyridin-5-yl) benzamide]", "values": [{"measurement": "inhibition at 0.1 µM", "setting": "[1]; Table 4A", "value": "< 25", "unit": "%"}]}
{"compound": "O=C1NCc2cc(-c3ccc4ncn(Cc5ccc6ncccc6c5)c4n3)ccc21", "note": "[Example 1033, 5-(3-Quinolin-6-ylmethyl-3H-imidazo[4,5-b]pyridin-5-yl)-2,3-dihydro-isoindol-1-one]", "values": [{"measurement": "inhibition at 0.1 µM", "setting": "[1]; Table 4C", "value": "< 25", "unit": "%"}]}
{"compound": "Cl.O=C(NOCCO)c1c(F)cc(-c2ccc3nnn(Cc4ccc5ncccc5c4)c3n2)cc1F", "note": "[Example 8a, 2,6-difluoro-N-(2-hydroxyethoxy)-4-(3-(quinolin-6-ylmethyl)-3H-[1,2,3]triazolo[4,5-b]pyridin-5-yl)benzamide hydrochloride]", "values": [{"measurement": "MKN45 % inhibition @ 100 nM", "setting": "[2]; Table 4A", "value": "C (C = ≧25-<50%)"}]}
{"compound": "NC(=O)c1c(F)cc(-c2ccc3nnn(Cc4ccc5[nH]c(=O)ccc5c4)c3n2)cc1F", "note": "[Example 1005, 2,6-difluoro-4-(3-((2-oxo-1,2-dihydroquinolin-6-yl)methyl)-3H-[1,2,3]triazolo[4,5-b]pyridin-5-yl)benzamide]", "values": [{"measurement": "inhibition at 0.1 µM", "setting": "[1]; Table 4C", "value": "< 25", "unit": "%"}]}
{"compound": "Cc1cc(-c2ccc3nnn(Cc4ccc5ncccc5c4)c3n2)ccc1C(=O)NOCCOC(=O)c1ccco1", "note": "[Example 47, 2-(2-methyl-4-(3-(quinolin-6-ylmethyl)-3H-[1,2,3]triazolo[4,5-b]pyridin-5-yl)benzamidooxy)ethyl furan-2-carboxylate]", "values": [{"measurement": "inhibition at 0.1 µM", "setting": "[1]; Table 4A", "value": "75 to 100", "unit": "%"}]}
{"compound": "C/C(=N\\N1CC(=O)NC1=O)c1ccc2nnn(Cc3ccc4ncccc4c3)c2n1", "note": "[Example 54, (E/Z)-1-(1-(3-(quinolin-6-ylmethyl)-3H-[1,2,3]triazolo[4,5-b]pyridin-5-yl)ethylideneamino)imidazolidine-2,4-dione]", "values": [{"measurement": "inhibition", "setting": "[1]; Table 4A", "value": "25 to 50", "unit": "%"}]}
{"compound": "CN(C)CCNC(=O)c1ccc(-c2ccc3ncn(Cc4ccc5ncccc5c4)c3n2)cc1Cl", "note": "[Example 101, 2-chloro-N-(2-(dimethylamino)ethyl)-4-(3-(quinolin-6-ylmethyl)-3H-imidazo[4,5-b]pyridin-5-yl)benzamide]", "values": [{"measurement": "inhibition", "setting": "[1]; Table 4B", "value": "< 25", "unit": "%"}]}
{"compound": "Cl.O=C(NOCCO)c1ccc(-c2ccc3nnn(Cc4cc5cccnc5cc4F)c3n2)cc1Cl", "note": "[Example 7a, 2-chloro-4-(3-((7-fluoroquinolin-6-yl)methyl)-3H-[1,2,3]triazolo[4,5-b]pyridin-5-yl)-N-(2-hydroxyethoxy)benzamide hydrochloride]", "values": [{"measurement": "MKN45 % inhibition @ 100 nM", "setting": "[2]; Table 4A", "value": "A (A= ≧75 to 100%)"}]}
{"compound": "Cl.O=C(NOCCO)c1c(F)cc(-c2ccc3nnn(Cc4cc5cccnc5cc4F)c3n2)cc1F", "note": "[Example 9a, 2,6-difluoro-4-(3-((7-fluoroquinolin-6-yl)methyl)-3H-[1,2,3]triazolo[4,5-b]pyridin-5-yl)-N-(2-hydroxyethoxy)benzamide hydrochloride]", "values": [{"measurement": "MKN45 % inhibition @ 100 nM", "setting": "[2]; Table 4A", "value": "A (A= ≧75 to 100%)"}, {"measurement": "GI50", "setting": "[2]; Table 4A, hydrochloride", "value": "25 to 50", "unit": "nM"}]}
{"compound": "Cc1cc(-c2ccc3nnn(Cc4ccc5[nH]c(=O)ccc5c4)c3n2)ccc1C(=O)NOCC(C)(C)O", "note": "[Example 37, N-(2-hydroxy-2-methylpropoxy)-2-methyl-4-(3-((2-oxo-1,2-dihydroquinolin-6-yl)methyl)-3H-[1,2,3]triazolo[4,5-b]pyridin-5-yl)benzamide]", "values": [{"measurement": "inhibition at 0.1 µM", "setting": "[1]; Table 4A", "value": "50 to 75", "unit": "%"}]}
{"compound": "O=C(NOCCO)c1ccc(-c2ccc3ncn(Cc4ccc5ncccc5c4)c3n2)cc1Cl", "note": "[Example 113, 2-Chloro-N-(2-hydroxy-ethoxy)-4-(3-quinolin-6-ylmethyl-3H-imidazo[4,5-b]pyridin-5-yl)-benzamide]", "values": [{"measurement": "inhibition at 0.1 µM", "setting": "[1]; Table 4B", "value": "75 to 100", "unit": "%"}]}
{"compound": "Cc1cc(-c2ccc3nnn(Cc4ccc5ncccc5c4)c3n2)ccc1C(=O)NOCCOC(=O)C(C)C", "note": "[Example 44, 2-(2-methyl-4-(3-(quinolin-6-ylmethyl)-3H-[1,2,3]triazolo[4,5-b]pyridin-5-yl)benzamidooxy)ethyl isobutyrate]", "values": [{"measurement": "inhibition at 0.1 µM", "setting": "[1]; Table 4A", "value": "75 to 100", "unit": "%"}]}
{"compound": "CN(C)CCCNC(=O)c1ccc(-c2ccc3nnn(Cc4ccc5ncccc5c4)c3n2)cc1", "note": "[Example 68, N-(3-Dimethylamino-propyl)-4-(3-quinolin-6-ylmethyl-3H-[1,2,3]triazolo[4,5-b]pyridin-5-yl)-benzamide dihydrochloride]", "values": [{"measurement": "inhibition at 0.1 µM", "setting": "[1]; Table 4A", "value": "75 to 100", "unit": "%"}]}
{"compound": "CC(=O)OCCONC(=O)c1ccc(-c2ccc3nnn(Cc4ccc5ncccc5c4)c3n2)cc1C", "note": "[Example 43, 2-(2-methyl-4-(3-(quinolin-6-ylmethyl)-3H-[1,2,3]triazolo[4,5-b]pyridin-5-yl)benzamidooxy)ethyl acetate]", "values": [{"measurement": "inhibition at 0.1 µM", "setting": "[1]; Table 4A", "value": "75 to 100", "unit": "%"}]}
{"compound": "NC(=O)c1ccc(-c2ccc3nnn(Cc4cc5ccc[n+]([O-])c5cc4F)c3n2)cc1Cl", "note": "[Example 1002]", "values": [{"measurement": "inhibition at 0.1 µM", "setting": "[1]; Table 4C", "value": "< 25", "unit": "%"}]}
{"compound": "CNC(=O)CNC(=O)c1ccc(-c2ccc3nnn(Cc4ccc5ncccc5c4)c3n2)cc1", "note": "[Example 2, N-(2-(methylamino)-2-oxoethyl)-4-(3-(quinolin-6-ylmethyl)-3H-[1,2,3]triazolo[4,5-b]pyridin-5-yl)benzamide]", "values": [{"measurement": "GI50", "setting": "[2]; Homo sapiens, MKN-45, Table 4A", "value": "100 to 250", "unit": "nM"}]}
{"compound": "Cc1cc(-c2ccc3nnn(Cc4ccc5ncccc5c4)c3n2)ccc1C(=O)NO", "note": "[Example 42, N-Hydroxy-2-methyl-4-(3-quinolin-6-ylmethyl-3H-[1,2,3]triazolo[4,5-b]pyridin-5-yl)-benzamide]", "values": [{"measurement": "inhibition at 0.1 µM", "setting": "[1]; Table 4A", "value": "75 to 100", "unit": "%"}]}
{"compound": "CCNC(=O)c1ccc(-c2ccc3ncn(Cc4ccc5ncccc5c4)c3n2)cc1Cl", "note": "[Example 1013, 2-chloro-N-ethyl-4-(3-(quinolin-6-ylmethyl)-3H-imidazo[4,5-b]pyridin-5-yl)benzamide]", "values": [{"measurement": "inhibition", "setting": "[1]; Table 4C", "value": "< 25", "unit": "%"}]}
{"compound": "Cc1cc(-c2ccc3nnn(Cc4ccc5ncccc5c4)c3n2)ccc1C(=O)NOCCO", "note": "[Example 25a, N-(2-hydroxyethoxy)-2-methyl-4-(3-(quinolin-6-ylmethyl)-3H-[1,2,3]triazolo[4,5-b]pyridin-5-yl)benzamide hydrochloride]", "values": [{"measurement": "MKN45 % inhibition @ 100 nM", "setting": "[2]; Table 4A, hydrochloride, 0.1 µM", "value": "B (B = ≧50-<75%)"}]}
